{
  "source": "patent US20250129070A1",
  "about": "“BIFUNCTIONAL ANDROGEN RECEPTOR COMPOUNDS” (priority 2023, published 2025)",
  "data": [
    {"system": "VCaP cells", "assay": "VCaP growth inhibition assay", "format": "cell-based", "settings": "30 pM R1881, 9 days, CTG", "protocol": "VCaP cells (ATCC Cat #CRL-2876) are plated at 1×10^4 cells per well of a white plastic 96-well cluster plate (Thermo Scientific Nunc Cat #165306) in 100 uL phenol red-free DMEM (Gibco Cat #21063-029) media with 5% CSS (Omega Scientific Cat #FB-04). Cluster plates are returned to the incubator (37*C/5% CO2) for 72 hours prior to treatment. Just prior to treatment, 100 μL of phenol red-free DMEM/5% CSS and […] R1881 (Sigma Cat #R0908-10 mg) was added to each well of the cluster plates (Final R1881 concentration=30 pM). Compounds (200×) were added to each well in a volume of 1 uL, with serial dilutions (1:5) from 20 uM to 2 pM (final concentrations in well are 100 nM to 10 fM). Cluster plates are returned to the incubator for 9 days.\nAfter the 9-day treatment period, media was removed from the cluster plates by inversion and 100 uL room temperature CTG reagent (Promega Cat #G7573) is added to each well. The cluster plates are placed on a shaker and incubated at room temperature for 20 minutes. Following this shaking/incubation, cluster plates are read on a luminometer (BMG ClarioStar). IC50 values are obtained by graphing the RLU data vs. compound concentration with nonlinear regression 4-parameter logistic curves (GraphPad Prism).", "units": {"IC50": "nM"}, "values": [
      {"smiles": "COc1cc(OC2C(C)(C)C(NC(=O)c3ccc(N4CCC(N5CCC(n6cc(-c7cc8cccc(-c9nn(C%10CCOCC%10)c%10c9CN(C(C)=O)CC%10)c8cn7)cn6)CC5)CC4)cc3)C2(C)C)ccc1C#N", "note": "(stereo not drawn) [Compound 270, 4-[4-[4-[4-[8-(5-acetyl-1-tetrahydropyran-4-yl-6,7-dihydro-4H-pyrazolo[4,3-c]pyridin-3-yl)-3-isoquinolyl]pyrazol-1-yl]-1-piperidyl]-1-piperidyl]-N-[3-(4-cyano-3-methoxy-phenoxy)-2,2,4,4-tetramethylcyclobutyl]benzamide]", "IC50": "0.1 to 1"},
      {"smiles": "CC(=O)N1CCc2c(c(Nc3ccc(-c4cnn(C)c4)cc3F)nn2C2CCN(CC3CCN(c4ncc(C(=O)NC5C(C)(C)C(Oc6ccc(C#N)c(Cl)c6)C5(C)C)cn4)CC3)C2)C1", "note": "(stereo not drawn) [Compound 7, 2-[4-[[3-[5-acetyl-3-[2-fluoro-4-(1-methylpyrazol-4-yl)anilino]-6,7-dihydro-4H-pyrazolo[4,3-c]pyridin-1-yl]pyrrolidin-1-yl]methyl]-1-piperidyl]-N-[3-(3-chloro-4-cyano-phenoxy)-2,2,4,4-tetramethyl-cyclobutyl]pyrimidine-5-carboxamide]", "IC50": "0.1 to 1"},
      {"smiles": "COc1cc(OC2C(C)(C)C(NC(=O)c3ccc(N4CC(N5CCC6(CCC(n7nc(N8CCCc9cc(-c%10cnn(C)c%10)c(C(F)F)cc98)c8c7CCN(C(C)=O)C8)CC6)CC5)C4)cc3)C2(C)C)ccc1C#N", "note": "(stereo not drawn) [Compound 301, 4-[3-[9-[5-acetyl-3-[7-(difluoromethyl)-6-(1-methylpyrazol-4-yl)-3,4-dihydro-2H-quinolin-1-yl]-6,7-dihydro-4H-pyrazolo[4,3-c]pyridin-1-yl]-3-azaspiro[5.5]undecan-3-yl]azetidin-1-yl]-N-[3-(4-cyano-3-methoxy-phenoxy)-2,2,4,4-tetramethyl-cyclobutyl]benzamide]", "IC50": "≤ 0.1"},
      {"smiles": "CC(=O)N1CCc2c(c(Nc3ccc(-c4cnn(C)c4)cc3F)nn2C2CN(CCN3CCN(c4ncc(C(=O)NC5C(C)(C)C(Oc6ccc(C#N)c(Cl)c6)C5(C)C)cn4)CC3)C2)C1", "note": "(stereo not drawn) [Compound 164, 2-[4-[2-[3-[5-acetyl-3-[2-fluoro-4-(1-methylpyrazol-4-yl)anilino]-6,7-dihydro-4H-pyrazolo[4,3-c]pyridin-1-yl]azetidin-1-yl]ethyl]piperazin-1-yl]-N-[3-(3-chloro-4-cyano-phenoxy)-2,2,4,4-tetramethyl-cyclobutyl]pyrimidine-5-carboxamide]", "IC50": "≤ 0.1"},
      {"smiles": "CC(=O)N1CCc2c(c(Nc3ccc(-c4cnn(C)c4)cc3F)nn2C2CCN(CCC3CCN(c4ncc(C(=O)NC5C(C)(C)C(Oc6ccc(C#N)c(Cl)c6)C5(C)C)cn4)CC3)CC2)C1", "note": "(stereo not drawn) [Compound 168, 2-[4-[2-[4-[5-acetyl-3-[2-fluoro-4-(1-methylpyrazol-4-yl)anilino]-6,7-dihydro-4H-pyrazolo[4,3-c]pyridin-1-yl]-1-piperidyl]ethyl]-1-piperidyl]-N-[3-(3-chloro-4-cyano-phenoxy)-2,2,4,4-tetramethyl-cyclobutyl]pyrimidine-5-carboxamide]", "IC50": "0.1 to 1"},
      {"smiles": "COc1cc(OC2C(C)(C)C(NC(=O)c3ccc(N4CCC5(CC4)CCN(c4ccc(-c6cc7cccc(-c8nn(C9CCOCC9)c9c8CN(C(C)=O)CC9)c7cn6)cn4)CC5)cc3)C2(C)C)ccc1C#N", "note": "(stereo not drawn) [Compound 266, 4-[3-[5-[8-(5-acetyl-1-tetrahydropyran-4-yl-6,7-dihydro-4H-pyrazolo[4,3-c]pyridin-3-yl)-3-isoquinolyl]-2-pyridyl]-3,9-diazaspiro[5.5]undecan-9-yl]-N-[3-(4-cyano-3-methoxy-phenoxy)-2,2,4,4-tetramethyl-cyclobutyl]benzamide]", "IC50": "0.1 to 1"},
      {"smiles": "CC(=O)N1CCc2c(c(Nc3ccc(-c4cnn(C)c4)cc3F)nn2C2CN(C(=O)CN3CCN(c4ncc(C(=O)NC5C(C)(C)C(Oc6ccc(C#N)c(Cl)c6)C5(C)C)cn4)CC3)C2)C1", "note": "(stereo not drawn) [Compound 165, 2-[4-[2-[3-[5-acetyl-3-[2-fluoro-4-(1-methylpyrazol-4-yl)anilino]-6,7-dihydro-4H-pyrazolo[4,3-c]pyridin-1-yl]azetidin-1-yl]-2-oxo-ethyl]piperazin-1-yl]-N-[3-(3-chloro-4-cyano-phenoxy)-2,2,4,4-tetramethyl-cyclobutyl]pyrimidine-5-carboxamide]", "IC50": "≤ 0.1"},
      {"smiles": "CC(=O)N1CCc2c(c(N3CCCc4cc(-c5cnn(C)c5)c(C(F)F)cc43)nn2C2CCC3(CC2)CCN(c2ccc4c(n2)CN(C2C(C)(C)C(Oc5ccc(C#N)c(Cl)c5)C2(C)C)C4=O)CC3)C1", "note": "(stereo not drawn) [Compound 298, 4-[3-[2-[9-[5-acetyl-3-[7-(difluoromethyl)-6-(1-methylpyrazol-4-yl)-3,4-dihydro-2H-quinolin-1-yl]-6,7-dihydro-4H-pyrazolo[4,3-c]pyridin-1-yl]-3-azaspiro [5.5]undecan-3-yl]-5-oxo-7H-pyrrolo[3,4-b]pyridin-6-yl]-2,2,4,4-tetramethyl-cyclobutoxy]-2-chloro-benzonitrile]", "IC50": "> 100"},
      {"smiles": "COc1cc(OC2C(C)(C)C(NC(=O)c3ccc(N4CCC5(CCC(n6cc(-c7cc8cccc(-c9nn(C%10CCOCC%10)c%10c9CN(C(C)=O)CC%10)c8cn7)cn6)CC5)CC4)cc3)C2(C)C)ccc1C#N", "note": "(stereo not drawn) [Compound 269, 4-[9-[4-[8-(5-acetyl-1-tetrahydropyran-4-yl-6,7-dihydro-4H-pyrazolo[4,3-c]pyridin-3-yl)-3-isoquinolyl]pyrazol-1-yl]-3-azaspiro[5.5]undecan-3-yl]-N-[3-(4-cyano-3-methoxy-phenoxy)-2,2,4,4-tetramethyl-cyclobutyl]benzamide]", "IC50": "0.1 to 1"},
      {"smiles": "COc1cc(OC2C(C)(C)C(NC(=O)c3ccc(N4CCC(N5CCC6(CCC(n7nc(N8CCCc9cc(-c%10cnn(C)c%10)c(C(F)F)cc98)c8c7CCN(C(C)=O)C8)CC6)CC5)CC4)cc3)C2(C)C)ccc1C#N", "note": "(stereo not drawn) [Compound 300, 4-[4-[9-[5-acetyl-3-[7-(difluoromethyl)-6-(1-methylpyrazol-4-yl)-3,4-dihydro-2H-quinolin-1-yl]-6,7-dihydro-4H-pyrazolo[4,3-c]pyridin-1-yl]-3-azaspiro[5.5]undecan-3-yl]-1-piperidyl]-N-[3-(4-cyano-3-methoxy-phenoxy)-2,2,4,4-tetramethyl-cyclobutyl]benzamide]", "IC50": "≤ 0.1"},
      {"smiles": "CC(=O)N1CCc2c(c(N3CCCc4cc(-c5cnn(C)c5)c(C(F)F)cc43)nn2C2CCN(C3CCN(c4ccc5c(n4)CN(C4C(C)(C)C(Oc6ccc(C#N)c(Cl)c6)C4(C)C)C5=O)CC3)CC2)C1", "note": "(stereo not drawn) [Compound 297, 4-[3-[2-[4-[4-[5-acetyl-3-[7-(difluoromethyl)-6-(1-methylpyrazol-4-yl)-3,4-dihydro-2H-quinolin-1-yl]-6,7-dihydro-4H-pyrazolo[4,3-c]pyridin-1-yl]-1-piperidyl]-1-piperidyl]-5-oxo-7H-pyrrolo[3,4-b]pyridin-6-yl]-2,2,4,4-tetramethyl-cyclobutoxy]-2-chloro-benzonitrile]", "IC50": "1 to 100"},
      {"smiles": "CC(=O)N1CCc2c(c(N3CCCc4cc(-c5cnn(C)c5)c(C(F)F)cc43)nn2CCN2CCN(c3ncc(C(=O)NC4C(C)(C)C(Oc5ccc(C#N)c(Cl)c5)C4(C)C)cn3)CC2)C1", "note": "(stereo not drawn) [Compound 52, 2-[4-[2-[5-acetyl-3-[7-(difluoromethyl)-6-(1-methylpyrazol-4-yl)-3,4-dihydro-2H-quinolin-1-yl]-6,7-dihydro-4H-pyrazolo[4,3-c]pyridin-1-yl]ethyl]piperazin-1-yl]-N-[3-(3-chloro-4-cyano-phenoxy)-2,2,4,4-tetramethyl-cyclobutyl]pyrimidine-5-carboxamide]", "IC50": "0.1 to 1"},
      {"smiles": "COc1cc(OC2C(C)(C)C(NC(=O)c3ccc(N4CCC5(CC4)CC(Oc4ccc(-c6cc7c(cc6C(F)F)N(c6nn(C8CCOCC8)c8c6CN(C(C)=O)CC8)CCC7)cn4)C5)cc3)C2(C)C)ccc1C#N", "note": "(stereo not drawn) [Compound 306, 4-[2-[[5-[1-(5-acetyl-1-tetrahydropyran-4-yl-6,7-dihydro-4H-pyrazolo[4,3-c]pyridin-3-yl)-7-(difluoromethyl)-3,4-dihydro-2H-quinolin-6-yl]-2-pyridyl]oxy]-7-azaspiro[3.5]nonan-7-yl]-N-[3-(4-cyano-3-methoxy-phenoxy)-2,2,4,4-tetramethyl-cyclobutyl]benzamide]", "IC50": "1 to 100"},
      {"smiles": "CC(=O)N1CCc2c(c(N3CCCc4cc(-c5cnn(C)c5)c(C(F)F)cc43)nn2C2CCN(CCOCc3ncc(C(=O)NC4C(C)(C)C(Oc5ccc(C#N)c(Cl)c5)C4(C)C)cn3)CC2)C1", "note": "(stereo not drawn) [Compound 88, 2-[2-[4-[5-acetyl-3-[7-(difluoromethyl)-6-(1-methylpyrazol-4-yl)-3,4-dihydro-2H-quinolin-1-yl]-6,7-dihydro-4H-pyrazolo[4,3-c]pyridin-1-yl]-1-piperidyl]ethoxymethyl]-N-[3-(3-chloro-4-cyano-phenoxy)-2,2,4,4-tetramethyl-cyclobutyl]pyrimidine-5-carboxamide]", "IC50": "0.1 to 1"},
      {"smiles": "CC(=O)N1CCc2c(c(Nc3ccc(-c4cnn(C)c4)cc3F)nn2CCOC2CCN(c3ncc(C(=O)NC4C(C)(C)C(Oc5ccc(C#N)c(Cl)c5)C4(C)C)cn3)CC2)C1", "note": "(stereo not drawn) [Compound 2, 2-[4-[2-[5-acetyl-3-[2-fluoro-4-(1-methylpyrazol-4-yl)anilino]-6,7-dihydro-4H-pyrazolo[4,3-c]pyridin-1-yl]ethoxy]-1-piperidyl]-N-[3-(3-chloro-4-cyano-phenoxy)-2,2,4,4-tetramethyl-cyclobutyl]pyrimidine-5-carboxamide]", "IC50": "1 to 100"}
    ]}
  ]
}
